“And” between values parts separate entries of the source, which are not always exact repeats. Equal values may be shown once. Read-outs that look alike come from different tables or passages of the source.
Legend:
[1] = Plasma concentration of Compound 1.003 after single intranasal administration of nasal formulation Ex. A (LC-MS/MS); format: in vivo, Mouse; details: female athymic mice
Procedure: (§1) This study was conducted to investigate the potential for Compound 1.003 to penetrate into the brain following a single intranasal administration of a nasal formulation including the compound. Compound 1.003 was formulated at a dose strength of 2.3% according to Ex. A of Example 1.
(§2) A single group of female athymic mice each received a single intranasal administration of Compound 1.003. At intervals post dose the animals were sacrificed and samples of blood and brain were collected. The concentration of Compound 1.003 was determined in plasma and brain; and samples of brain were used for determination of the expression of phosphor-ERK (p-ERK).
(§3) The study was conducted using the following animals: • Species: Mouse; • Strain: NCr mu/mu athymic nude mice from Charles River; • Sex: Female; • Age: 7 weeks old at the time of dosing; • Body weight: 20.1 to 27.0 g; and • Number used: 12
(§4) Overview: A single group of 12 athymic female mice each received a single intranasal administration of Compound 1.003 (Ex. A nasal formulation of Example 1). Three animals were sacrificed at each a 4 times post dose and sample of plasma and brain collected at necropsy. The concentration of Compound 1.003 was determined in plasma and brain by liquid chromatography with tandem mass spectrometry (LC-MS/MS) and the expression of p-ERK was determined in brain samples.
(§5) Dosing: Each animal received a single administration (50 μL) of the nasal formulation Ex. A including Compound 1.003. The dose was administration intranasally to each animal.
(§6) (dry ice). The samples were send out for the LC-MS/MS analysis of plasma concentration of Compound 1.003. • Brain Collection: Brain (divide into 2 parts at the mid sagittal plane); Part 1: preservation—snap frozen, ship at −80° C. (dry ice) for the LC-MS/MS analysis of Compound 1.003; and Part 2: preservation—fixed in 10% neutral buffered formalin for at least 24 h. Samples were then transferred after 24 h into 1.5 mL Eppendorf tubes containing 70% EtOH and stored ambient until shipment for the expression of p-ERK.
(§7) Bioanalytical Methods: Bioanalysis of […] plasma and brain samples for Compound 1.003 was performed using the LC-MS/MS analysis. For this study, the analysis was conducted using existing fit for purpose bioanalytical methods. Plasma samples were analyzed undiluted against a plasma standard curve (10 standards between 0.5 to 5000 ng/mL). Prior to analysis for concentration of compound 1.003, the brain samples were weighed, mixed with 5 volumes of water and then homogenised. Homogenised samples were then diluted 2× into plasma and then analysed against the plasma standard curve ([…]). All results were then corrected for the dilution factor.

[2] = Brain concentration and brain:plasma ratio of Compound 1.003 after single intranasal administration of nasal formulation Ex. A (LC-MS/MS); format: in vivo, Mouse; details: female athymic mice, single intranasal 50 μL Ex. A; for Brain concentration, animal replicates: individual animals; for Brain concentration, Mean: mean of 3
Procedure: as §1, §2, §3, §4, §5, §6, §7

- Cmax ([1]; NCr mu/mu athymic nude, mouse, plasma, inhaled or intranasal, single intranasal 50 μL Ex. A, read-out: maximum plasma concentration (Cmax)): 996 ng/mL
- Plasma concentration, animal replicates ([1]; single intranasal 50 μL Ex. A, 0.5 h post dose, individual animals): 1000 ng/mL and 823 ng/mL
- Plasma concentration, animal replicates ([1]; single intranasal 50 μL Ex. A, 1.0 h post dose, individual animals): 82.4 ng/mL and 125 ng/mL
- Plasma concentration, animal replicates ([1]; single intranasal 50 μL Ex. A, 4.0 h post dose, individual animals): 52.4 ng/mL and 82.4 ng/mL
- Plasma concentration, animal replicates ([1]; single intranasal 50 μL of nasal formulation Ex. A (2.3%), 0.25 h post dose, individual animals): 1190 ng/mL and 1230 ng/mL and 568 ng/mL
- concentration at 0.5 h ([1]; female, NCr mu/mu athymic nude, mouse, plasma, other: intranasal, 50 μL, single intranasal 50 μL Ex. A, 0.5 h post dose, individual animals, read-out: Plasma concentration, animal replicates): 757 ng/mL
- concentration at 0.5 h ([1]; female, NCr mu/mu athymic nude, mouse, plasma, other: intranasal, 50 μL, single intranasal 50 μL Ex. A, 0.5 h post dose, mean of 3, read-out: Plasma concentration, Mean): 860 ng/mL
- concentration at 1 h ([1]; female, NCr mu/mu athymic nude, mouse, plasma, other: intranasal, 50 μL, single intranasal 50 μL Ex. A, 1.0 h post dose, individual animals, read-out: Plasma concentration, animal replicates): 130 ng/mL
- concentration at 1 h ([1]; female, NCr mu/mu athymic nude, mouse, plasma, other: intranasal, 50 μL, single intranasal 50 μL Ex. A, 1.0 h post dose, mean of 3, read-out: Plasma concentration, Mean): 112 ng/mL
- concentration at 4 h ([1]; female, NCr mu/mu athymic nude, mouse, plasma, other: intranasal, 50 μL, single intranasal 50 μL Ex. A, 4.0 h post dose, individual animals, read-out: Plasma concentration, animal replicates): 45.5 ng/mL
- concentration at 4 h ([1]; female, NCr mu/mu athymic nude, mouse, plasma, other: intranasal, 50 μL, single intranasal 50 μL Ex. A, 4.0 h post dose, mean of 3, read-out: Plasma concentration, Mean): 60.1 ng/mL
- concentration at 0.25 h ([1]; female, NCr mu/mu athymic nude, mouse, plasma, other: intranasal, 50 μL, single intranasal 50 μL of nasal formulation Ex. A (2.3%), 0.25 h post dose, mean of 3): 996 ng/mL
- Brain:plasma concentration ratio, individual animal ([2]; 0.250 h post dose, animals 1-3): 0.30 and 0.49
- Brain concentration, animal replicates ([2]; 0.250 h post dose): 405 and 375 and 280
- Brain concentration, Mean ([2]; 0.250 h post dose): 353 ng/g
- Brain:plasma concentration ratio, individual animal ([2]; 0.500 h post dose, animals 4-6): 0.51 and 0.47
- Brain concentration, animal replicates ([2]; 0.500 h post dose): 297 and 513 and 383
- Brain concentration, Mean ([2]; 0.500 h post dose): 398 ng/g
- Brain:plasma concentration ratio, individual animal ([2]; 1.00 h post dose, animals 7-9): 1.45 and 2.49 and 1.15
- Brain concentration, animal replicates ([2]; 1.00 h post dose): 188 and 205 and 144
- Brain concentration, Mean ([2]; 1.00 h post dose): 179 ng/g
- Brain:plasma concentration ratio, Mean ([2]; 4.00 h post dose): 1.72
- Brain:plasma concentration ratio, individual animal ([2]; 4.00 h post dose, animals 10-12): 3.65 and 0.89 and 0.63
- Brain concentration, animal replicates ([2]; 4.00 h post dose): 166 and 46.5 and 51.9
- Brain concentration, Mean ([2]; 4.00 h post dose): 88.1 ng/g
- Kp at 0.25 h ([2]; female, NCr mu/mu athymic nude, mouse, brain, inhaled or intranasal, 50 μL, 0.250 h (15 min) post dose, read-out: Brain:plasma concentration ratio, Mean): 0.38
- Kp at 0.25 h ([2]; female, NCr mu/mu athymic nude, mouse, brain, inhaled or intranasal, 50 μL, 0.250 h post dose, animals 1-3, read-out: Brain:plasma concentration ratio, individual animal): 0.34
- Kp at 0.5 h ([2]; female, NCr mu/mu athymic nude, mouse, brain, inhaled or intranasal, 50 μL, 0.500 h post dose, animals 4-6, read-out: Brain:plasma concentration ratio, individual animal): 0.39
- Kp at 0.5 h ([2]; female, NCr mu/mu athymic nude, mouse, brain, inhaled or intranasal, 50 μL, 0.500 h post dose, read-out: Brain:plasma concentration ratio, Mean): 0.46
- Kp at 1 h ([2]; female, NCr mu/mu athymic nude, mouse, brain, inhaled or intranasal, 50 μL, 1.00 h post dose): 1.7
- Kp at 4 h ([2]; female, NCr mu/mu athymic nude, mouse, brain, inhaled or intranasal, 50 μL, 4.00 h post dose): 1.7
SMILES: Cn1c(Nc2ccc(I)cc2F)c(C(=O)NOCCO)c2cccnc21 [Compound 1.003, 2-((2-fluoro-4-iodophenyl)amino)-N-(2-hydroxyethoxy)-1-methyl-1H-pyrrolo[2,3-b]pyridine-3-carboxamide]
